Measured values: ChEMBL document CHEMBL1150906, “Cytotoxic and insecticidal constituents of the unripe fruit of Persea americana” (J Nat Prod, 1998)
Converted amounts (≈) assume the structure as drawn.

System: MIA PaCa-2
Assay: Cytotoxicity against human MIAPaCa2 cells by MTT assay
Format: functional, cell-based
Settings: not given
Work on `CCCCCCCCCCCCCCCC(O)CC(O)CO` (stereo unspecified) yielded an IC50 greater than 10 µg/mL.
Molecule `C=CCCCCCCCCCCCC(O)CC(O)CO` (stereo unspecified) [AVOCADENE] has an IC50 of 5.3 µg/mL (≈ 18.5 µM).
Molecule `C#CCCCCCCCCCCCC(O)CC(O)CO` (stereo unspecified) [AVOCADYNE] has an IC50 greater than 10 µg/mL.
For `COc1cccc2c1C(=O)c1c(O)c3c(c(O)c1C2=O)C[C@@](O)(C(=O)CO)C[C@@H]3O[C@H]1C[C@H](N)[C@H](O)[C@H](C)O1` [DOXORUBICIN], the IC50 was 0.0024 µg/mL (≈ 0.00442 µM).

System: A498
Assay: Cytotoxicity against human A498 cells by MTT assay
Format: functional, cell-based
Settings: not given
With `CCCCCCCCCCCCCCCC(O)CC(O)CO` (stereo unspecified) the IC50 was 2.7 µg/mL (≈ 8.53 µM).
With `C=CCCCCCCCCCCCC(O)CC(O)CO` (stereo unspecified) [AVOCADENE] the IC50 was 3.6 µg/mL (≈ 12.6 µM).
Molecule `C#CCCCCCCCCCCCC(O)CC(O)CO` (stereo unspecified) [AVOCADYNE] has an IC50 of 4.1 µg/mL (≈ 14.4 µM).
Molecule `COc1cccc2c1C(=O)c1c(O)c3c(c(O)c1C2=O)C[C@@](O)(C(=O)CO)C[C@@H]3O[C@H]1C[C@H](N)[C@H](O)[C@H](C)O1` [DOXORUBICIN] has an IC50 of 0.0049 µg/mL (≈ 0.00902 µM).

System: A549
Assay: Cytotoxicity against human A549 cells by MTT assay
Format: functional, cell-based
Settings: not given
`CCCCCCCCCCCCCCCC(O)CC(O)CO` (stereo unspecified) gave an IC50 of 3 µg/mL (≈ 9.48 µM).
For `C=CCCCCCCCCCCCC(O)CC(O)CO` (stereo unspecified) [AVOCADENE], the IC50 was 3.4 µg/mL (≈ 11.9 µM).
`C#CCCCCCCCCCCCC(O)CC(O)CO` (stereo unspecified) [AVOCADYNE] showed an IC50 of 4.8 µg/mL (≈ 16.9 µM).
`COc1cccc2c1C(=O)c1c(O)c3c(c(O)c1C2=O)C[C@@](O)(C(=O)CO)C[C@@H]3O[C@H]1C[C@H](N)[C@H](O)[C@H](C)O1` [DOXORUBICIN] gave an IC50 of 0.0022 µg/mL (≈ 0.00405 µM).

System: MCF7
Assay: Cytotoxicity against human MCF7 cells by MTT assay
Format: functional, cell-based
Settings: not given
For `CCCCCCCCCCCCCCCC(O)CC(O)CO` (stereo unspecified), the IC50 was 3.2 µg/mL (≈ 10.1 µM).
Molecule `C=CCCCCCCCCCCCC(O)CC(O)CO` (stereo unspecified) [AVOCADENE] has an IC50 of 4.4 µg/mL (≈ 15.4 µM).
For `C#CCCCCCCCCCCCC(O)CC(O)CO` (stereo unspecified) [AVOCADYNE], the IC50 was 6.5 µg/mL (≈ 22.9 µM).
Molecule `COc1cccc2c1C(=O)c1c(O)c3c(c(O)c1C2=O)C[C@@](O)(C(=O)CO)C[C@@H]3O[C@H]1C[C@H](N)[C@H](O)[C@H](C)O1` [DOXORUBICIN] has an IC50 of 0.081 µg/mL (≈ 0.149 µM).

System: Aedes aegypti
Assay: Insecticidal activity against yellow fever mosquito larvae […] in bovine liver powder after 4 days by MES assay
Format: functional
Settings: 96 h
`CCCCCCCCCCCCCCCC(O)CC(O)CO` (stereo unspecified) gave an LC50 of 1.8 µg/mL (≈ 5.69 µM).
With `C=CCCCCCCCCCCCC(O)CC(O)CO` (stereo unspecified) [AVOCADENE] the LC50 was 0.21 µg/mL (≈ 0.733 µM).
For `C#CCCCCCCCCCCCC(O)CC(O)CO` (stereo unspecified) [AVOCADYNE], the LC50 was 0.077 µg/mL (≈ 0.271 µM).
`C=C(C)[C@H]1Cc2c(ccc3c2O[C@@H]2COc4cc(OC)c(OC)cc4[C@@H]2C3=O)O1` [ROTENONE] showed an LC50 of 0.75 µg/mL (≈ 1.9 µM).

System: not listed separately
Assay: Toxicity in Artemia salina
Format: organism-based
Settings: in vivo
In the case of `CCCCCCCCCCCCCCCC(O)CC(O)CO` (stereo unspecified), the LC50 is reported as 2.8 µg/mL (≈ 8.85 µM).
Work on `C=CCCCCCCCCCCCC(O)CC(O)CO` (stereo unspecified) [AVOCADENE] yielded an LC50 of 1.3 µg/mL (≈ 4.54 µM).
With `C#CCCCCCCCCCCCC(O)CC(O)CO` (stereo unspecified) [AVOCADYNE] the LC50 was 0.64 µg/mL (≈ 2.25 µM).

System: HT-29
Assay: Cytotoxicity against human HT-29 cells by MTT assay
Format: functional, cell-based
Settings: not given
Molecule `CCCCCCCCCCCCCCCC(O)CC(O)CO` (stereo unspecified) has an IC50 of 3 µg/mL (≈ 9.48 µM).
With `C=CCCCCCCCCCCCC(O)CC(O)CO` (stereo unspecified) [AVOCADENE] the IC50 was 2.6 µg/mL (≈ 9.08 µM).
`C#CCCCCCCCCCCCC(O)CC(O)CO` (stereo unspecified) [AVOCADYNE] showed an IC50 of 8.9 µg/mL (≈ 31.3 µM).
In the case of `COc1cccc2c1C(=O)c1c(O)c3c(c(O)c1C2=O)C[C@@](O)(C(=O)CO)C[C@@H]3O[C@H]1C[C@H](N)[C@H](O)[C@H](C)O1` [DOXORUBICIN], the IC50 is reported as 0.0053 µg/mL (≈ 0.00975 µM).

System: PC-3
Assay: Cytotoxicity against human PC3 cells by MTT assay
Format: functional, cell-based
Settings: not given
With `CCCCCCCCCCCCCCCC(O)CC(O)CO` (stereo unspecified) the IC50 was 1.2 µg/mL (≈ 3.79 µM).
Molecule `C=CCCCCCCCCCCCC(O)CC(O)CO` (stereo unspecified) [AVOCADENE] has an IC50 of 0.46 µg/mL (≈ 1.61 µM).
`C#CCCCCCCCCCCCC(O)CC(O)CO` (stereo unspecified) [AVOCADYNE] gave an IC50 of 0.061 µg/mL (≈ 0.214 µM).
`COc1cccc2c1C(=O)c1c(O)c3c(c(O)c1C2=O)C[C@@](O)(C(=O)CO)C[C@@H]3O[C@H]1C[C@H](N)[C@H](O)[C@H](C)O1` [DOXORUBICIN] showed an IC50 of 0.011 µg/mL (≈ 0.0202 µM).
